Data: patent publication US9938222B2 (BRISTOL-MYERS SQUIBB COMPANY, priority 2014, dated 2018)

Target: human GPR120 (Homo sapiens (Human), UniProt Q5NUL3)
Assay: GPR120 pERK AlphaScreen SureFire Assay (human GPR120 pERK assay)
Format: cell-based
Details: CHO cells stably transfected with short form of human GPR120
Source text: GPR120 activity was monitored by measuring phosphorylation of ERK (pERK), since G protein receptors are known to activate the ERK signaling cascade either directly and/or through recruitment of arrestin that serves as a scaffold for downstream signaling events.
GPR120 pERK AlphaScreen SureFire Assay
The human and mouse GPR120-mediated intracellular phosphorylated ERK assays were established using CHOA12 cells stably transfected with the short form of human or mouse GPR120 receptor. Cells were cultured in growth medium consisting of F-12 media (Invitrogen Cat. #11765) with 5% Charcoal/Dextran FBS (Invitrogen Cat. #12676-029), 500 μg/mL GENETICIN® (Life Technologies Cat. #10131-027) and 250 μg/mL Zeocin (Invitrogen Cat. #R250-01). Cells were cryo-preserved at a concentration of 2×10^7 cells/mL, in 90% Charcoal/Dextran FBS and 10% DMSO, and frozen in liquid nitrogen at a low passage number.
For the pERK assay, 2×10^7 cells/mL cryopreserved human and mouse cells were thawed rapidly in a 37° C. water bath and added to a T-225 flask containing 50 mL growth medium. The flasks were placed in a tissue culture incubator overnight (37° C., 5% CO2). The next day, cells were harvested with trypsin (Gibco Cat. #25300-054), resuspended in serum-containing growth medium and counted using a Cellometer and volume adjusted to a concentration of 0.6×10^6 cells/mL. Cells were plated into 384-well clear bottom tissue culture plates (BD Cat. #353962) at 50 μL/well, for a density of 30,000 cells/well using a MULTIDROP® and incubated for 16-18 hours (overnight) at 37° C. with 5% CO2. The next day, cells were serum starved in 30 μL of F-12 media without any serum or antibiotics for 2 hours at 37° C.
Test compounds were 3-fold, 11-point serially diluted in DMSO in a REMP assay plate (Matrix Cat. #4307) by Tecan and 5 μL was transferred into an ECHO source plate (Labcyte Cat. #LC-0200). Cells were then stimulated with 50 nL of compound dilutions using ECHO liquid handler for 7 min at 37° C. Compounds ranged from final assay concentrations of 33.33 μM to 0.56 nM.
The media was then dumped and cells lysed with 20 μL of 1× Lysis buffer from the AlphaScreen SureFire Phospho-ERK 1/2 Kit (Perkin Elmer Cat. #6760617M). The lysis buffer was diluted 5-fold with water before use. The plate was agitated on a shaker for 10 min after which 2 μL was transferred into a 384-well white proxiplate (Perkin Elmer Cat. #6008289). The SureFire assay reagent mix was prepared by mixing 60 parts Reaction Buffer, 10 parts Activation Buffer, 1 part Donor Beads, 1 part Acceptor Beads (Perkin Elmer Cat. #TGRES10K). 3.5 μL/well of this reagent mix was manually added to the proxiplate with a multichannel pipettor. Plates were spun down at 1000 rpm for 2 min, followed by light-protected incubation at room temperature for 2 hours. The plates were read on the Alpha-technology compatible Envision multilabel plate reader using AlphaScreen protocol according to manufacturer's specifications. The agonist effect of compounds was expressed as 100×(average sample-average blank)/(average total-average blank) where sample is the luminescence activity in the presence of test compound, blank is equal to the luminescence activity in the presence of DMSO control and the total is signal induced by 50 μM linolenic acid as reference compound. Activation data for the test compound over a range of concentrations was plotted as percentage activation of the test compound (100%=maximum response). After correcting for background, EC50 values were determined. The EC50 is defined as the concentration of test compound which produces 50% of the maximal response and was quantified using the 4 parameter logistic equation to fit the data.
The human and mouse GPR120-mediated intracellular phosphorylated ERK assays were also established using CHO-K1 cells stably transfected with the short form of human or mouse GPR120 receptor. […]

Chain of human GPR120 (Q5NUL3 whole entry): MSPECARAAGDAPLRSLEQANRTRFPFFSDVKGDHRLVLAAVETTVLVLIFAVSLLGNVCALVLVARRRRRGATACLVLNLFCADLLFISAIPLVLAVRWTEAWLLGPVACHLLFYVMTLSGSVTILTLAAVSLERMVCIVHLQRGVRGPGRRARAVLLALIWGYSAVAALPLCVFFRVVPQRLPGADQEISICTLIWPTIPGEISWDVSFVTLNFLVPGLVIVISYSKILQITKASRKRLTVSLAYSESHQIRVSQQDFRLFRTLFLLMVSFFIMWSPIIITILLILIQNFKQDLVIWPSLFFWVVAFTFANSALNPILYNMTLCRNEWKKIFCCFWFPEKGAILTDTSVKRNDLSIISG

| SMILES | EC50 |
| --- | --- |
| COc1cc(-c2cc(Oc3cccc(F)c3)ccc2F)ccc1OC[C@@H]1C[C@H]1C(=O)O (relative stereo) [Example 99, Trans-2-(((2′-fluoro-5′-(3-fluorophenoxy)-3-methoxy-[1,1′-biphenyl]-4-yl)oxy)methyl) cyclopropanecarboxylic acid] | 1140 nM |
| COc1cc(OC(F)(F)F)cc(-c2ccc(OC[C@@H]3C[C@H]3C(=O)O)cc2)c1 (racemic) [Example 74, Trans-2-(((3′-methoxy-5′-(trifluoromethoxy)-[1,1′-biphenyl]-4-yl)oxy)methyl)cyclopropanecarboxylic acid] | 610 nM |
| O=C(O)[C@@H]1C[C@H]1COc1ccc(-c2cc(OC(F)(F)F)ccc2Cl)cc1 (racemic) [Example 54, Trans-2-(((2′-chloro-5′-(trifluoromethoxy)-[1,1′-biphenyl]-4-yl)oxy)methyl)cyclopropanecarboxylic acid] | 500 nM |
| CC(C)Oc1ccc(F)c(-c2ccc(CC[C@@H]3C[C@@H]3C(=O)O)cc2)c1 (single isomer, unassigned) [Example 17] | 200 nM |
| O=C(O)C1CC1COc1ccc(-c2cc(OC(F)(F)F)ccc2F)cc1 (racemic) [Example 51, Trans-2-(((2′-fluoro-5′-(trifluoromethoxy)-[1,1′-biphenyl]-4-yl)oxy)methyl)cyclopropanecarboxylic acid] | 470 nM |
| CC(C)Oc1cc(F)c(F)c(-c2ccc(OC[C@@H]3C[C@H]3C(=O)O)c(F)c2)c1 (single isomer, unassigned) [Example 66] | 320 nM |
| O=C(O)[C@@H]1C[C@@H]1COc1ccc(-c2cc(Oc3ccccc3)ccc2F)cc1 (racemic) [Example 4, Cis-2-(((2′-fluoro-5′-phenoxy-[1,1′-biphenyl]-4-yl)oxy)methyl)cyclopropanecarboxylic acid] | 470 nM |
| O=C(O)C1CC1COc1ccc(-c2cc(OC(F)(F)F)ccc2F)cc1 (single isomer, unassigned) [Example 52, Trans-2-(((2′-fluoro-5′-(trifluoromethoxy)-[1,1′-biphenyl]-4-yl)oxy)methyl)cyclopropanecarboxylic acid] | 620 nM |
| COc1cc(OC(C)C)cc(-c2ccc(OC[C@@H]3C[C@H]3C(=O)O)cc2)c1 (racemic) [Example 117, Trans-2-(((3′-isopropoxy-5′-methoxy-[1,1′-biphenyl]-4-yl)oxy)methyl) cyclopropanecarboxylic acid] | 1110 nM |
| CC(C)Oc1ccc(F)c(-c2ccc(OC[C@@H]3C[C@H]3C(=O)O)c(F)c2)c1 (single isomer, unassigned) [Example 63] | 180 nM |
| O=C(O)[C@@H]1C[C@H]1COc1ccc(-c2cc(Oc3ccc(Cl)cc3)ccc2F)cc1 (racemic) [Example 92, Trans-2-(((5′-(4-Chlorophenoxy)-2′-fluoro-[1,1′-biphenyl]-4-yl)oxy)methyl) cyclopropanecarboxylic acid] | 300 nM |
| O=C(O)C1CC1COc1ccc(-c2cc(OC(F)(F)F)ccc2F)cc1 (single isomer, unassigned) [Example 53, Trans-2-(((2′-fluoro-5′-(trifluoromethoxy)-[1,1′-biphenyl]-4-yl)oxy)methyl)cyclopropanecarboxylic acid] | 330 nM |
| CC(C)Oc1ccc(F)c(-c2ccc(OC[C@@H]3C[C@H]3C(=O)O)c(CC=O)c2)c1 (racemic) [Example 90, Trans-2-(((2′-fluoro-5′-isopropoxy-3-(2-oxoethyl)-[1,1′-biphenyl]-4-yl)oxy)methyl) cyclopropanecarboxylic acid] | 930 nM |
| O=C(O)[C@@H]1C[C@@H]1COc1ccc(-c2cc(Oc3ccccc3)ccc2F)cc1 (single isomer, unassigned) [Example 5] | 2110 nM |
| CC(C)Oc1ccc(F)c(-c2ccc(OC[C@@H]3C[C@H]3C(=O)O)cc2)c1 (single isomer, unassigned) [Example 3] | 470 nM |
| CC1(C)Cc2cc(Cl)cc(-c3ccc(CC[C@@H]4C[C@H]4C(=O)O)cc3)c2O1 (single isomer, unassigned) [Example 26] | 1720 nM |

| SMILES | EC50 |
| --- | --- |
| CC(C)Oc1ccc(F)c(-c2ccc(CO[C@@H]3C[C@H]3C(=O)O)cc2)c1 (relative stereo) [Example 37, Trans-2-((2′-fluoro-5′-isopropoxy-[1,1′-biphenyl]-4-yl)methoxy)cyclopropanecarboxylic acid] | 2650 nM |
| O=C(O)[C@@H]1CC1COc1ccc(-c2cc(Oc3cccc(F)c3)cnc2Cl)cc1 (stereo partly shown) [Example 112] | 210 nM |
| COc1ccc(F)c(-c2ccc(CC[C@@H]3C[C@H]3C(=O)O)cc2)c1 (relative stereo) [Example 80, Trans-2-(2-(2′-fluoro-5′-methoxy-[1,1′-biphenyl]-4-yl)ethyl) cyclopropanecarboxylic acid] | 3260 nM |
| O=C(O)[C@H]1C[C@@H]1COc1ccc(-c2cc(Oc3ccccc3)ccc2F)cc1F (single isomer, unassigned) [Example 11] | 160 nM |
| O=C(O)C1CC1COc1ccc(-c2cc(Oc3cccc(F)c3)cc(F)c2F)cc1F (racemic) [Example 104, Trans-2-(((2′,3,3′-trifluoro-5′-(3-fluorophenoxy)-[1,1′-biphenyl]-4-yl)oxy)methyl)cyclopropanecarboxylic acid] | 90 nM |
| COc1cc(Cl)cc(-c2ccc(CC[C@@H]3C[C@H]3C(=O)O)cc2)c1 (racemic) [Example 77, Trans-2-(2-(3′-chloro-5′-methoxy-[1,1′-biphenyl]-4-yl)ethyl) cyclopropanecarboxylic acid] | 2340 nM |
| CC(C)Oc1cc(-c2ccc(OC[C@@H]3C[C@H]3C(=O)O)cc2)c(F)cn1 (racemic) [Example 70, Trans-2-((4-(5-fluoro-2-isopropoxypyridin-4-yl)phenoxy)methyl)cyclopropanecarboxylic acid] | 2400 nM |
| CC(C)Oc1ccc(F)c(-c2ccc(C[C@H]3C[C@H]3CC(=O)O)cc2)c1 (racemic) [Example 34, Cis-2-(2-((2′-fluoro-5′-isopropoxy-[1,1′-biphenyl]-4-yl)methyl)cyclopropyl)acetic acid] | 430 nM |
| COc1ncc(Cl)cc1-c1ccc(CC[C@@H]2C[C@H]2C(=O)O)cc1 (racemic) [Example 78, Trans-2-(4-(5-chloro-2-methoxypyridin-3-yl)phenethyl) cyclopropanecarboxylic acid] | 6090 nM |
| O=C(O)[C@@H]1C[C@H]1COc1ccc(-c2cc(Oc3cccc(F)c3)cc(F)c2F)cc1F (single isomer, unassigned) [Example 106] | 270 nM |
| O=C(O)[C@H]1CC1COc1ccc(-c2cc(Oc3cccc(F)c3)ccc2F)cc1F (stereo partly shown) [Example 98] | 200 nM |
| O=C(O)[C@@H]1C[C@H]1COc1ccc(-c2cc(Oc3ccc(F)cc3)ccc2F)cc1 (racemic) [Example 44, Trans-2-(((2′-fluoro-5′-(4-fluorophenoxy)-[1,1′-biphenyl]-4-yl)oxy)methyl)cyclopropanecarboxylic acid] | 270 nM |
| CC(C)Oc1ccc(F)c(-c2ccc(OC[C@@H]3C[C@H]3C(=O)O)c(C(F)(F)F)c2)c1 (racemic) [Example 88, Trans-2-(((2′-fluoro-5′-isopropoxy-3-(trifluoromethyl)-[1,1′-biphenyl]-4-yl)oxy)methyl) cyclopropanecarboxylic acid] | 180 nM |
| CC(C)Oc1ccc(F)c(-c2ccc(OC[C@@H]3C[C@@H]3C(=O)O)cc2)c1 (single isomer, unassigned) [Example 8] | 2860 nM |
| O=C(O)C1CC1COc1ccc(-c2cc(OC3CCCC3)ccc2F)cc1 (racemic) [Example 50, Trans-2-(((5′-cyclopentyloxy)-2′-fluoro-[1,1′-biphenyl]-4-yl)oxy)methyl) cyclopropanecarboxylic acid] | 260 nM |
